How the values were obtained:
HBV [1] = settings: phase II studies, 30 mg daily dose, over 12 weeks; cited from earlier work
[2] = ALT in patients on treatment; type: in vivo, human
Protocol: (§1) Patient A, a person was initially referred for evaluation of thrombocytopenia and hepatosplenomegaly. At this time the patient had abnormal LFT's (ALT 67 U/L, normal <55) and the HBV DNA was 61 pg/ml (231 days prior to the start of treatment). The patient was HBsAg and HBeAg positive. The ALT's fluctuated between 50-70 IU/L from (−231 to −35 days pretreatment). ADV was commenced on Day 0 in a clinical trial on 30 mg/day. HBV DNA levels were reduced with ADV treatment. The ADV treatment was reduced to 10 mg/day (144 days post-treatment). There was a problem with the randomization treatment protocol. The patient was on antiviral treatment for 1 month only during the second year of the treatment period. The study was completed on Day 679 post ADV treatment. The patient was not on ADV treatment until the open label ADV was recommenced on Day 875 from the start of the initial ADV treatment. This second period of ADV treatment was given for 108 days (day 983 post initial ADV treatment). […] At Day 983, ADV treatment was stopped and the patient was treated with LMV.
(§2) Patient B is a liver transplant patient. The patient has been on both sequential and combination antiviral therapy including HBIG, FCV+HBIG, LMV+HBIG, LMV, LMV+GCV, LMV+FCV+GCV, LMV+GCV and finally LMV+ADV. The patient has been on long term ADV+LMV treatment for over 795 days. Patient C, is a person. Prior to ADV treatment the patient had abnormal LFT's (ALT 240 IU/L, normal <55) and the HBV DNA was 2×10^7 copies/ml. ADV was commenced on Day 0 in a clinical trial on 10 mg/day for two years. The average ALT during the two year clinical trial period ws 114 IU/L. However, the ALT was rising and at 630 days after the start of ADV treatment the ALT remained high 407 IU/L. Open label ADV was commenced on Day 668 from the start of the initial ADV treatment. This second period of ADV treatment was given for […]. […] The peak ALT during open label ADV treatment was 517 IU/L (Day 738). The next day (Day 739), ADV treatment was stopped and the patient was treated with LMV.

HBV [3] = test: Hepatitis B viral DNA levels in patients on treatment (capture hybridization assay); type: in vivo, human; settings: for HBV DNA copies/ml: open label ADV
Protocol: as §1, §2
Hepatitis B surface antigen (HBsAg), hepatitis B e antigen (HBeAg), anti-HBe and hepatitis B core antigen (HBcAg) specific IgG and IgM were measured using commercially available immunoassays (Abbott Laboratories, North Chicago, Ill., USA). Hepatitis B viral DNA levels were measured using a capture hybridization assay according to the manufacturer's directions (Digene Hybrid Capture II, Digene Diagnostics Inc., Beltsville, Md.). The manufacturers stated cut-off for detecting HBV viremia in clinical specimens was 0.7×10^6 copies/ml or 2.5 pg/ml, [Hendricks et al., Am J Clin Pathol 104: 537-46, 1995]. HBV DNA levels can also be quantitated using other commercial kits such as Cobas amplification HBV monitor kit (Roche).

HBV rt N236T/N238D = test: In vitro drug susceptibility, recombinant HBV/baculovirus in HepG2 cells, rt N236T/N238D; type: cell-based, hepatitis B virus
Protocol: (§3) The sensitivity/resistance profile of HBV mutants to ADV was examined in vitro using recombinant HBV/baculovirus. The procedure for analyzing the resistance profile is outlined in the following Examples 12-20.
(§4) Sf21 insect cells were maintained in supplemented Grace's insect medium further supplemented with 10% v/v heat-inactivated fetal bovine serum (Gibco BRL, Gaithersburg, Md.) in humidified incubator at 28° C. with CO2. HepG2 cells were maintained in minimal essential medium supplemented with 10% v/v heat-inactivated fetal bovine serum (MEM-FBS). HepG2 cells were grown in humidified 37° C. incubators at 5% v/v CO2.
(§5) The recombinant HBV/baculovirus system used for antiviral testing has been previously described (Delaney et al., Antimicrob Agents Chemother 45(6): 17054013, 2001). In brief, the recombinant transfer vector was created by excising a fragment containing the 1.3X HBV genome construct and cloning it into the multiple cloning region of a baculovirus vector pBlueBac4.5 (Invitrogen, Carlsbad, Calif.). […] The nucleotide sequence of the plasmid and the point mutations generated by site directed mutagenesis were confirmed by sequencing using the ABI Prism Big Dye Terminator Cycle Sequencing Ready Reaction Kit according to the manufacturer's specifications (Perkin Elmer, Cetus Norwalk, Conn.). […]

HBV rt A181T/N236T/N238D = test: In vitro drug susceptibility, recombinant HBV/baculovirus in HepG2 cells, rt A181T/N236T/N238D; type: cell-based, hepatitis B virus
Protocol: as §3, §4
(§6) The recombinant HBV/baculovirus system used for antiviral testing has been previously described (Delaney et al., Antimicrob Agents Chemother 45(6): 17054013, 2001). In brief, the recombinant transfer vector was created by excising a fragment containing the 1.3X HBV genome construct and cloning it into the multiple cloning region of a baculovirus vector pBlueBac4.5 (Invitrogen, Carlsbad, Calif.). Point mutations were created by site directed mutagenesis using the commercial kits according to the manufacturer's specifications (QuikChange, Stratagene). HBV/baculovirus recombinant clones encoding the reverse transcriptase mutations rtA181T/N236T/N238D and […] in combination with the precore mutation at G1896A (pcW28 stop) or wild-type with respect to codon pcW28, were prepared by site-directed mutagenesis. The nucleotide sequence of the plasmid and the point mutations generated by site directed mutagenesis were confirmed by sequencing using the ABI Prism Big Dye Terminator Cycle Sequencing Ready Reaction Kit according to the manufacturer's specifications (Perkin Elmer, Cetus Norwalk, Conn.).
Purified recombinant transfer vector and linear AcMNPV baculovirus DNA were co-transfected into Sf21 cells using the BacNBlue transfection kit from Invitrogen (Carlsbad, Calif.); recombinant viruses were isolated by plaque assay according to the manufacturer's instructions. A series of recombinant viruses were amplified from isolated plaques by infecting 100-mm dishes of Sf21 cells. Viral DNA was extracted from amplified viruses using standard procedures. Purified viral DNA was digested with restriction enzymes and then fractionated by electrophoresis in a 1% […] agarose gel. Southern blotting was performed to determine which virus isolates contained the intact 1.3 HBV construct. A Boehringer Mannheim Random Prime DNA Labeling kit (Indianapolis, Ind.) was used to generate [P^32]-radiolabeled probes. A full-length double-stranded HBV genome was used as a template for all radiolabeled probes. […]

HBV rt L180M/M204V = test: In vitro drug susceptibility, recombinant HBV/baculovirus in HepG2 cells, rt L180M/M204V; type: cell-based, hepatitis B virus
Protocol: as §3, §4, §5

[4] = test system: Wild-type (pPC) HBV reference laboratory strain (genotype D subtype ayw); test: In vitro drug susceptibility, recombinant HBV/baculovirus in HepG2 cells, wild-type; type: cell-based, hepatitis B virus
Protocol: as §3, §4, §6
Purified recombinant transfer vector and linear AcMNPV baculovirus DNA were co-transfected into Sf21 cells using the BacNBlue transfection kit from Invitrogen (Carlsbad, Calif.); recombinant viruses were isolated by plaque assay according to the manufacturer's instructions. […]

CC(C)(C)C(=O)OCOP(=O)(COCCn1cnc2c(N)ncnc21)OCOC(=O)C(C)(C)C [ADV, adefovir dipivoxil]
mean decrease in viremia (HBV [1]): 4 log10 | ALT ([2]; Patient A, open label ADV, day 983 (end ADV)): 65 IU/L | ALT ([2]; Patient C, ADV 10 mg/day clinical trial, day 29): 160 IU/L | ALT ([2]; Patient C, ADV 10 mg/day clinical trial, day 630): 407 IU/L | ALT ([2]; Patient C, open label ADV, day 701): 226 IU/L | ALT ([2]; Patient C, open label ADV, day 730): 361 IU/L | ALT (peak during open label ADV) ([2]; Patient C, open label ADV, day 738): 517 IU/L | average ALT ([2]; Patient C, two year clinical trial period, ADV 10 mg/day): 114 IU/L | HBV DNA levels (HBV [3]; Patient A, ADV commenced Day 0, 30 mg/day): reduced | HBV DNA copies/ml (HBV [3]; Patient A, day 904 post-ADV treatment): 1.55 × 10^6 copies/ml | HBV DNA copies/ml (HBV [3]; Patient A, day 932): 2.97 × 10^6 copies/ml | HBV DNA copies/ml (HBV [3]; Patient A, day 959): 1.76 × 10^6 copies/ml | HBV DNA copies/ml (HBV [3]; Patient A, day 983 (end ADV)): 1.64 × 10^6 copies/ml | HBV DNA copies/ml (HBV [3]; Patient C, day 701): 1.5 × 10^7 copies/ml | HBV DNA copies/ml (HBV [3]; Patient C, day 730): 3.7 × 10^6 copies/ml | fold increase in IC50 (HBV rt N236T/N238D; rt N236T/N238D mutation, readout not stated): twenty-three | fold increase in IC50 (HBV rt A181T/N236T/N238D; rtA181T also present (triple mutant), readout not stated): five

Nc1ccn([C@@H]2CS[C@H](CO)O2)c(=O)n1 [Lamivudine, (-)-β-2'-deoxy-3'-thiacytidine]
ALT ([2]; Patient B, day -8 (S6), pre-ADV on LMV): 427 IU/L | In vitro Susceptibility IC50 (fold change from wild-type), Southern Blot (HBV rt A181T/N236T/N238D; rt A181T/N236T/N238D): >100 fold | In vitro Susceptibility IC50 (fold change from wild-type), Southern Blot (HBV rt L180M/M204V): >2500 fold | In vitro Susceptibility IC50 (fold change from wild-type), Southern Blot [4]: 1 fold

Nc1ncnc2c1ncn2CCOCP(=O)(O)O [Adefovir, 9-[phosphonyl-methoxyethyl]-adenine]
In vitro Susceptibility IC50 (fold change from wild-type), Real-time PCR (HBV rt N236T/N238D; Real-time PCR, rt N236T/N238D): 23 fold | In vitro Susceptibility IC50 (fold change from wild-type), Real-time PCR (HBV rt A181T/N236T/N238D; Real-time PCR, rt A181T/N236T/N238D): 5.1 fold | In vitro Susceptibility IC50 (fold change from wild-type), Southern Blot (HBV rt A181T/N236T/N238D; rt A181T/N236T/N238D): 7.3 fold | In vitro Susceptibility IC50 (fold change from wild-type), Southern Blot (HBV rt L180M/M204V): 0.9 fold | In vitro Susceptibility IC50 (fold change from wild-type), Real-time PCR ([4]; Real-time PCR): 1 fold | In vitro Susceptibility IC50 (fold change from wild-type), Southern Blot [4]: 1 fold

Source: patent publication US9702005B2, “Hepatitis B viral variants with reduced susceptibility to nucleoside analogs and uses thereof” (priority 2002, dated 2017)
